JP2019019068A, “アリールアゾール化合物および有害生物防除剤” (Nippon Soda Co Ltd, priority 2017, dated 2019)

Experiments:
[1] = test system: striped flea beetle (キスジノミハムシ) adults; assay: Test Example 2: efficacy test against striped flea beetle (キスジノミハムシ), spray on bok choy seedlings; format: in vivo; conditions: Phyllotreta striolata, 168 h, sprayed on bok choy seedlings, 25 °C, 65% humidity, 7 days after release, 2 replicates, read-out: insecticidal rate
[2] = test system: diamondback moth (コナガ) 2nd instar larvae; assay: Test Example 1: efficacy test against diamondback moth (コナガ), cabbage leaf dip; format: in vivo; conditions: Plutella xylostella, foliar, 72 h, cabbage leaf dipped 30 s, 25 °C, 60% humidity, 3 days after release, 2 replicates, read-out: insecticidal rate

With `CCS(=O)(=O)c1cc(/C=N/OCC(F)(F)F)cnc1-c1ncc(C=C(Cl)C(F)(F)F)n1C` [化合物番号1, (E)-6-(5-(2-chloro-3,3,3-trifluoroprop-1-en-1-yl)-1-methyl-1H-imidazol-2-yl)-5-(ethylsulfonyl)nicotinaldehyde O-(2,2,2-trifluoroethyl) oxime] the mortality at 125 ppm [1] was ≥ 80% and the mortality at 125 ppm [2] was ≥ 80%.
